In publication PMC7026418, “The kinase polypharmacology landscape of clinical PARP inhibitors” (Scientific Reports, 2020) one finds percent of control binding data, which are given here for four molecules.

Each structure is given as a SMILES string. Where two headings read alike, the source gives them in different places.

Some targets named below: AAK1 (Homo sapiens, UniProt Q2M2I8); DAPK2 (Homo sapiens, UniProt Q9UIK4); MET(M1250T) (Homo sapiens, UniProt P08581, M1250T).
Common to all, as to assay: biochemical
What all share (parameters): DiscoveRx KINOMEscan active site-directed competition binding; percent of control kinase bound to immobilised ligand

The target in the next assay is T1, ICK (Homo sapiens, UniProt Q9UPZ9).
T1 construct: gene CILK1
T1 sequence (Q9UPZ9 1-632): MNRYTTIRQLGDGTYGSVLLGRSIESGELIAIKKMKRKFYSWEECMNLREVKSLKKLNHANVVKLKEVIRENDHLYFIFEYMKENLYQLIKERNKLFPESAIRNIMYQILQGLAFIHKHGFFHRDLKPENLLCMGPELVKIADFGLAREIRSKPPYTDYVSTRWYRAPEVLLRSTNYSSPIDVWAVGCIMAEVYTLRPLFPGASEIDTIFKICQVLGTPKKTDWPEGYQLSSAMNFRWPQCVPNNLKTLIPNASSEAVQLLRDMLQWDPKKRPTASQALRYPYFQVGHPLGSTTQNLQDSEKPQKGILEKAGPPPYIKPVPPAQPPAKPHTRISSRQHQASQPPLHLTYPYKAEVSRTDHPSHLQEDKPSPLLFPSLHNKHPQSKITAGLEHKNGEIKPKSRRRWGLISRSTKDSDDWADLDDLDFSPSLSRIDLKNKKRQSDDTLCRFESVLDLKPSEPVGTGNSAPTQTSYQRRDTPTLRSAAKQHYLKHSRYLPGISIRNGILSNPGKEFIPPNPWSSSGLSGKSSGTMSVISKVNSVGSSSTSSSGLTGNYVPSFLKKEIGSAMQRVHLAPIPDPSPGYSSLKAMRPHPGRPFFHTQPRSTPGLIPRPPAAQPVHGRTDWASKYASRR

The target of the next assay is T2, CHEK1 (Homo sapiens, UniProt O14757).
T2 sequence (O14757 1-476): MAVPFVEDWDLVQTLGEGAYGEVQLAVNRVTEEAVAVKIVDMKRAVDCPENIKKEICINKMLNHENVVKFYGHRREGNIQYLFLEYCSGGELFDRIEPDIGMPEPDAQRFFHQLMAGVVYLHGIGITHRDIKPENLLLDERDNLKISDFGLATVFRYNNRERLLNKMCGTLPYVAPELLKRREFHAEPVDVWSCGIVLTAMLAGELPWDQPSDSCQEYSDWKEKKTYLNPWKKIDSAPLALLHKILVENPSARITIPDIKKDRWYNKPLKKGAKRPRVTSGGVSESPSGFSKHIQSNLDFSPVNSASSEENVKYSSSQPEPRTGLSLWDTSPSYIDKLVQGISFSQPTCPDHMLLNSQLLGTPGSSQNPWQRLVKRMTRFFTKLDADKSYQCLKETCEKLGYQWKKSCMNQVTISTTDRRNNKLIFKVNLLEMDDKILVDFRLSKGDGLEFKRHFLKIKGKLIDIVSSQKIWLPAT

Another assay concerns the target T3, CASK (Homo sapiens, UniProt O14936).
T3 sequence (O14936 1-926): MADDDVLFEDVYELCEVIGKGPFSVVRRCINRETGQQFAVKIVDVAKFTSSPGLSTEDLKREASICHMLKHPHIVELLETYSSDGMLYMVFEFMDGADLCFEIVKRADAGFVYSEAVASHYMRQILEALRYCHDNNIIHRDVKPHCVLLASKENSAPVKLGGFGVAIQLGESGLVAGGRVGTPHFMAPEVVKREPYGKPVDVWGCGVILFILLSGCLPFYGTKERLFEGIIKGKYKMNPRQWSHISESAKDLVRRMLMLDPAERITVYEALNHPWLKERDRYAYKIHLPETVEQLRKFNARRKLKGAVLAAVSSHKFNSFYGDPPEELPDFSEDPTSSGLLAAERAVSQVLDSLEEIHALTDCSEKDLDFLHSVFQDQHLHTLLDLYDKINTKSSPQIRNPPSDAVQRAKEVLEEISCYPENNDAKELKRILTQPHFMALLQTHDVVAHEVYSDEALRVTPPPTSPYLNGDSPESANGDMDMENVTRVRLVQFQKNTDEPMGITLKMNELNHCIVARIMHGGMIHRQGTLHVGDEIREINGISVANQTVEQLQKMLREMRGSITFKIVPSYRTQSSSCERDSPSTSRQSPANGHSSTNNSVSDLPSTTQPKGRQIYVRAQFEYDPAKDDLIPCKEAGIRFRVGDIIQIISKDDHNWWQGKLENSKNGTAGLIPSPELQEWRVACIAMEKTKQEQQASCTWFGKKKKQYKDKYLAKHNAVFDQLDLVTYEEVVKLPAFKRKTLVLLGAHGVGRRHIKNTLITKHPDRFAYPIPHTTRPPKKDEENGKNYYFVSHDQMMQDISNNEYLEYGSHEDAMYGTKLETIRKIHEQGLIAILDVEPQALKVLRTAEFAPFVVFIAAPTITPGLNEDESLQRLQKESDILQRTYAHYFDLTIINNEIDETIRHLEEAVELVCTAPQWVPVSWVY

The mark [1] stands for this setting: read-out: Niraparib (MK-4827) / %Ctrl @ 10000nM.
Where [2] appears, read: read-out: Talazoparib (BMN 673) / %Ctrl @ 10000nM.
[3] abbreviates: read-out: Rucaparib / %Ctrl @ 10000nM, binding competition, % of control.
Setting [4] is: read-out: Olaparib / %Ctrl @ 10000nM.

Sequence of DAPK2 (Q9UIK4 whole entry): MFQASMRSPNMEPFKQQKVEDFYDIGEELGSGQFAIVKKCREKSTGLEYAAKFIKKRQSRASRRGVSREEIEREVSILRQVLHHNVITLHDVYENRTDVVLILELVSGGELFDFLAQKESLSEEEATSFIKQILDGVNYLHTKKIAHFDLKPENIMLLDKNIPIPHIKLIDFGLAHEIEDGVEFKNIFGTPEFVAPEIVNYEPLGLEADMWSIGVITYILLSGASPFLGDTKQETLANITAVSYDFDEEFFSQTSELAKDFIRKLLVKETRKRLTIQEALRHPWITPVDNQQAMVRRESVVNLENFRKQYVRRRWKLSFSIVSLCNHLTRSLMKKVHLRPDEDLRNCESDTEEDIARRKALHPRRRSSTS
Sequence of MET(M1250T) (P08581 whole entry M1250T): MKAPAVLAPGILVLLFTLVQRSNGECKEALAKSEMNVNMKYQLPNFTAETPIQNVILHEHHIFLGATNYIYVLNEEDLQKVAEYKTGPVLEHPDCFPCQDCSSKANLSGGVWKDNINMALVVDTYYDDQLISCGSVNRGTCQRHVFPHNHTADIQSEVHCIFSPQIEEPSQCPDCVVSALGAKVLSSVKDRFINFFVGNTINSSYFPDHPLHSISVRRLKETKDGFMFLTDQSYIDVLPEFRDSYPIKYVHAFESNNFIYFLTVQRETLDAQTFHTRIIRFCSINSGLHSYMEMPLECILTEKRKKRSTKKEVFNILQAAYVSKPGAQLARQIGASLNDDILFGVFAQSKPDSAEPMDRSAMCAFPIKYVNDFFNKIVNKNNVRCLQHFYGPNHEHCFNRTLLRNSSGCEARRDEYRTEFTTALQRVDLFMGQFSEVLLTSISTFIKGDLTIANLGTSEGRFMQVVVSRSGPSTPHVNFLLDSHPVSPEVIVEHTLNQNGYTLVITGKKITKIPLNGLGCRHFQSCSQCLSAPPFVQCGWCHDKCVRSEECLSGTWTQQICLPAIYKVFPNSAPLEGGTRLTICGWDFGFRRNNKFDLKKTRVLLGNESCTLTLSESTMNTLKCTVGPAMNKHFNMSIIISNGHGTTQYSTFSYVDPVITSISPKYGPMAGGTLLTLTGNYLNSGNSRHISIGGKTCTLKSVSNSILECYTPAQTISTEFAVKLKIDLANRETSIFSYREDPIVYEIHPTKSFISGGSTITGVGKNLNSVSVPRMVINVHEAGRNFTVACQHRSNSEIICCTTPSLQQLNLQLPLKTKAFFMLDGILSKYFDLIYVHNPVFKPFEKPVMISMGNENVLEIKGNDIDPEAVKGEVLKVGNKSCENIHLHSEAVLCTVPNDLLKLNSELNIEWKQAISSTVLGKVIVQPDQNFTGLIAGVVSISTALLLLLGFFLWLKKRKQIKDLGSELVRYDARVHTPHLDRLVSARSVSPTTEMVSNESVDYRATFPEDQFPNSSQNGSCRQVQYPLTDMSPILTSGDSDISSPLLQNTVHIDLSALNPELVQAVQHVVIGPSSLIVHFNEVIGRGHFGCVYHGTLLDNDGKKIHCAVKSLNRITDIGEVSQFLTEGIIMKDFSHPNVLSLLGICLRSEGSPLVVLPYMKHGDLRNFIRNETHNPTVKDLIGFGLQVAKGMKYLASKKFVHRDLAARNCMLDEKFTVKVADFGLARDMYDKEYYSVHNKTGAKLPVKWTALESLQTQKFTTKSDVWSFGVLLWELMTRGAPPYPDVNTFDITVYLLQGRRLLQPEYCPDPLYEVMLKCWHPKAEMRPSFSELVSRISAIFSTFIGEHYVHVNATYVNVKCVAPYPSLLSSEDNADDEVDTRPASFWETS
Sequence of AAK1 (Q2M2I8 whole entry): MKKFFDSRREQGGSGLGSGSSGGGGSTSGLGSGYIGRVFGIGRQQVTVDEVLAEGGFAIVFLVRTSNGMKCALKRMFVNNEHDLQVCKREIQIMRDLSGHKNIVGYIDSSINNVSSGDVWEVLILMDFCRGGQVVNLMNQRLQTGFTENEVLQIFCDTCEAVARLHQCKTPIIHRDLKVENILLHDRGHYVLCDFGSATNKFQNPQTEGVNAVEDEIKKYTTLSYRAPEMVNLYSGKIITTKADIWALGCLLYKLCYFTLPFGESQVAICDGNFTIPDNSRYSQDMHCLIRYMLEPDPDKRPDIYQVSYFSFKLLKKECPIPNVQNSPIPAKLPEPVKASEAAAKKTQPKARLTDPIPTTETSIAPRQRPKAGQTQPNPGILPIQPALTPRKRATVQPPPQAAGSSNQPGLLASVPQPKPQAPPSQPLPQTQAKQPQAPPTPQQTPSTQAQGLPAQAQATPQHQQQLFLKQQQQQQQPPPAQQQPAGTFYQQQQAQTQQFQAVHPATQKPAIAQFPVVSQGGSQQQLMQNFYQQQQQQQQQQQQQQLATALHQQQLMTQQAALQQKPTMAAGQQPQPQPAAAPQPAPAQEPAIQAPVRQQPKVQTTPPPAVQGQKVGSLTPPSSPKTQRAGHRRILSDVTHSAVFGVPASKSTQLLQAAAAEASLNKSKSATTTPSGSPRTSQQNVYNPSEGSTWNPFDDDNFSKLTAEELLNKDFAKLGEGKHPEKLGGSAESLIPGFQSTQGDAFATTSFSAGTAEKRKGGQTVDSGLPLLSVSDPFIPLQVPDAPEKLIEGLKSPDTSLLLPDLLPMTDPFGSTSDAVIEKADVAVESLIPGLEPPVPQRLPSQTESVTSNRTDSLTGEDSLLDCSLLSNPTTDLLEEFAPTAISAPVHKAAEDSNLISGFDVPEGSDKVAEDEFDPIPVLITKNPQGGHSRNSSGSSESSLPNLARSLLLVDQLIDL

Take `NC(=O)c1cccc2cn(-c3ccc([C@@H]4CCCNC4)cc3)nc12` [Niraparib]: the percent of control binding at 10 µM at ICK (setting [1]) was found to be 63%; on AAK1 (setting [1]), 83%; on DAPK2 (setting [1]), 81%; at CHEK1 (setting [1]) it was 72%; on MET(M1250T) (setting [1]), 91%; at CASK (setting [1]) it was 93%.
Take `Cn1ncnc1[C@H]1c2n[nH]c(=O)c3cc(F)cc(c23)N[C@@H]1c1ccc(F)cc1` [Talazoparib]: the percent of control binding at 10 µM was determined as 71% on ICK (setting [2]); 93% on AAK1 (setting [2]); 95% at DAPK2 (setting [2]); 86% on CHEK1 (setting [2]); 99% at MET(M1250T) (setting [2]); 79% at CASK (setting [2]).
`CNCc1ccc(-c2[nH]c3cc(F)cc4c3c2CCNC4=O)cc1` [Rucaparib]: the percent of control binding at 10 µM amounted to 64% at ICK (setting [3]); 82% on AAK1 (setting [3]); 37% on DAPK2 (setting [3]); 100% on CHEK1 (setting [3]); 99% at MET(M1250T) (setting [3]); 83% on CASK (setting [3]).
`O=C(c1cc(Cc2n[nH]c(=O)c3ccccc23)ccc1F)N1CCN(C(=O)C2CC2)CC1` [Olaparib]: the percent of control binding at 10 µM is 92% at ICK (setting [4]); 100% at AAK1 (setting [4]); 100% at DAPK2 (setting [4]); 79% at CHEK1 (setting [4]); 99% on MET(M1250T) (setting [4]); 78% on CASK (setting [4]).
